Measurements from patent US12312328B2, “Pyrazoline dihydroquinolones, pharmaceutical compositions, and uses” (Emory University, priority 2013, dated 2025).
pIC50: −log10 of the molar value. Where two headings read alike, the source gives them in different places.

Key:
[1] = molecular target: T1, GluN2C-containing receptors (Rattus norvegicus, UniProt P35439+Q00961); experiment: Two-electrode voltage-clamp inhibition of GluN2C-containing NMDA receptors in Xenopus laevis oocytes; format: cell-based
T1 construct: expressed in transfected cells; host or cells: Xenopus laevis oocytes
Protocol: (§1) IC50 values were obtained by fitting the Hill equation to the average composite concentration-effect curves.
(§2) Xenopus laevis oocytes were isolated and maintained as described in Hansen & Traynelis, J Neurosci 2011, 31, 3650-3661. Oocytes were placed in a perfusion chamber with recording solution comprised of (in mM) 90 NaCl, 1 KCl, 0.5 BaCl2, 0.005 EDTA and 10 HEPES, pH adjusted to 7.4 with NaOH at 23° C. The glass electrodes used had tip resistance of 0.5-2.0 MΩ and were filled with 0.3-3.0 M KCl. Compounds were made as 20 mM stock solutions in DMSO and diluted to final concentrations in recording solution (final DMSO was 0.1-0.05% vol/vol). The current recordings were performed using a Warner OC-725B or C amplifier at a holding potential of −40 mV.

[2] = molecular target: T2, GluN2D-containing receptors (Rattus norvegicus, UniProt P35439+Q62645); experiment: Two-electrode voltage-clamp inhibition of GluN2D-containing NMDA receptors in Xenopus laevis oocytes; format: cell-based; settings: GluN2D-containing receptors
T2 construct: expressed in transfected cells; host or cells: Xenopus laevis oocytes
Protocol: as §1, §2

[3] = molecular target: T3, GluN2C-containing receptors (Rattus norvegicus, UniProt Q00961); experiment: Two-electrode voltage-clamp inhibition of GluN2C-containing NMDA receptors in Xenopus laevis oocytes; format: cell-based
T3 construct: expressed in transfected cells; host or cells: Xenopus laevis oocytes
Protocol: as §1, §2

[4] = molecular target: T4, GluN2D-containing receptors (Rattus norvegicus, UniProt Q62645); experiment: Two-electrode voltage-clamp inhibition of GluN2D-containing NMDA receptors in Xenopus laevis oocytes; format: cell-based
T4 construct: expressed in transfected cells; host or cells: Xenopus laevis oocytes
Protocol: as §1, §2

[5] = test system: GluN2C- and GluN2D-containing NMDA receptors; experiment: NMDA receptor inhibition and subunit selectivity, GluN2C/GluN2D not told apart; format: cell-based
Protocol: as §1, §2

[6] = test system: MDR1-MDCK cell monolayers; experiment: MDR1-MDCK permeability assay; format: in vitro ADME; settings: for BBB penetration classification: from Papp and efflux ratio in MDR1-MDCK
Protocol: The Papp and efflux ratio were calculated as described in the Methods. […] See Wang et al., International Journal of Pharmaceutics, 2005, 288, 349-359.
Cell monolayers were grown to confluence on collagen-coated, microporous, polycarbonate membranes in 12-well Costar Transwell® plates. The permeability assay buffer was Hanks Balanced Salt Solution containing 10 mM HEPES and 15 mM glucose at pH 7.4. The buffer in the receiver chamber also contained 1% bovine serum albumin. The dosing solution concentration in the assay buffer was 5 μM for each compound tested. The cell monolayers were dosed on the apical side (A-to-B) or basolateral side (B-to-A) and incubated at 37° C. with 5% CO2 in a humidified incubator. Samples were taken from the donor and receiver chambers at 120 minutes. Each determination was performed in duplicate. The co-dosed lucifer yellow flux was also measured for each monolayer to ensure no damage was inflicted to the cell monolayers during the flux period. All samples were assayed by LC-MS/MS using electrospray ionization. The apparent permeability (Papp) and percent recovery were calculated as follows. […] Human Liver Microsomal Stability

[7] = Plasma stability, mouse; format: in vitro ADME; settings: two-hour time-course
Protocol: (§3) Three analogs, (58) 997-33, (26)997-23 and (64) 997-57 were evaluated for plasma stability as well as aqueous solubility. […] The aqueous solubility of compounds (26)997-23 and (58) 997-33 was evaluated in oocyte recording buffer using nephelometry. […] In order to assess the potential BBB penetration, compounds (26)997-23 and (64)997-57 were selected for evaluation in the MDR1-MDCK permeability assay (FIG. 19). […] The same compounds were also evaluated for metabolic stability using human liver microsomes.

[8] = Plasma stability, rat; format: in vitro ADME; settings: two-hour time-course
Protocol: as §3

[9] = Plasma stability, human; format: in vitro ADME; settings: two-hour time-course
Protocol: as §3

[10] = GluN2D-containing receptors, read-out: inhibition IC50 for GluN2D

T2 sequence (Q62645 28-1323, other chains not shown): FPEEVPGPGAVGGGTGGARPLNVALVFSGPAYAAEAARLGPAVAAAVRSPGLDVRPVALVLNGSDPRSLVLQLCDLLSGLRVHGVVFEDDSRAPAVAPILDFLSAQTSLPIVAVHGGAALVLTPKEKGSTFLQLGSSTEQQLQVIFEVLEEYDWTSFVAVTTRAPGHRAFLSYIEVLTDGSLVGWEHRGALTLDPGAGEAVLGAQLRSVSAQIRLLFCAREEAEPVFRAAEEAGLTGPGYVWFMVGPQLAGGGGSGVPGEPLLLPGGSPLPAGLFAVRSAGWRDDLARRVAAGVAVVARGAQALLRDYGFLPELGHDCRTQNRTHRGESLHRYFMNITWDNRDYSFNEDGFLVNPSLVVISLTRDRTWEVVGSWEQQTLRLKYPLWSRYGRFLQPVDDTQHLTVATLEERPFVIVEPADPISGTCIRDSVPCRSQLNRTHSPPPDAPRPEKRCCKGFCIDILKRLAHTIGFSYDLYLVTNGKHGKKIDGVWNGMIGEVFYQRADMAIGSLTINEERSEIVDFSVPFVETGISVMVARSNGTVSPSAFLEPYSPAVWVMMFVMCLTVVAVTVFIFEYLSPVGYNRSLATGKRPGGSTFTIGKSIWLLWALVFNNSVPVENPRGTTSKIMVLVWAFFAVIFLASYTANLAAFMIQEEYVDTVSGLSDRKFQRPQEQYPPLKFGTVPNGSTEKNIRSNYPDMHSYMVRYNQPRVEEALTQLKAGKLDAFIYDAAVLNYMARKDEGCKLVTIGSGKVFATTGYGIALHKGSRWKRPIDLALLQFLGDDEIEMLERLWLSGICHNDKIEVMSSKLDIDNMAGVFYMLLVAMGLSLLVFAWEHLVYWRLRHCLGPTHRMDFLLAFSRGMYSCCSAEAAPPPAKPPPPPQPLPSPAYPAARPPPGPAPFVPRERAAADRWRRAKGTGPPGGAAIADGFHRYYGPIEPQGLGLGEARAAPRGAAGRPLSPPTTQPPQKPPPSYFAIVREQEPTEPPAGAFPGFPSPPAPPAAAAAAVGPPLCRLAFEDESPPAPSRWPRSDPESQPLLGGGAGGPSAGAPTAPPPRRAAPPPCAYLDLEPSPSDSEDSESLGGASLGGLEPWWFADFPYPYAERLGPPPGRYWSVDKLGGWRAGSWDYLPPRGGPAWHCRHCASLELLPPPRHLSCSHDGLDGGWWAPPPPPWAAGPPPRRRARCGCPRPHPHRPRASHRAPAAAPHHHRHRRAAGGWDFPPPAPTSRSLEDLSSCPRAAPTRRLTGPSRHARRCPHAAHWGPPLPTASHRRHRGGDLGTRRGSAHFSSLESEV
T4 sequence (Q62645 28-1323, other chains not shown): as above
T1 sequence (Q00961 20-1237, other chains not shown): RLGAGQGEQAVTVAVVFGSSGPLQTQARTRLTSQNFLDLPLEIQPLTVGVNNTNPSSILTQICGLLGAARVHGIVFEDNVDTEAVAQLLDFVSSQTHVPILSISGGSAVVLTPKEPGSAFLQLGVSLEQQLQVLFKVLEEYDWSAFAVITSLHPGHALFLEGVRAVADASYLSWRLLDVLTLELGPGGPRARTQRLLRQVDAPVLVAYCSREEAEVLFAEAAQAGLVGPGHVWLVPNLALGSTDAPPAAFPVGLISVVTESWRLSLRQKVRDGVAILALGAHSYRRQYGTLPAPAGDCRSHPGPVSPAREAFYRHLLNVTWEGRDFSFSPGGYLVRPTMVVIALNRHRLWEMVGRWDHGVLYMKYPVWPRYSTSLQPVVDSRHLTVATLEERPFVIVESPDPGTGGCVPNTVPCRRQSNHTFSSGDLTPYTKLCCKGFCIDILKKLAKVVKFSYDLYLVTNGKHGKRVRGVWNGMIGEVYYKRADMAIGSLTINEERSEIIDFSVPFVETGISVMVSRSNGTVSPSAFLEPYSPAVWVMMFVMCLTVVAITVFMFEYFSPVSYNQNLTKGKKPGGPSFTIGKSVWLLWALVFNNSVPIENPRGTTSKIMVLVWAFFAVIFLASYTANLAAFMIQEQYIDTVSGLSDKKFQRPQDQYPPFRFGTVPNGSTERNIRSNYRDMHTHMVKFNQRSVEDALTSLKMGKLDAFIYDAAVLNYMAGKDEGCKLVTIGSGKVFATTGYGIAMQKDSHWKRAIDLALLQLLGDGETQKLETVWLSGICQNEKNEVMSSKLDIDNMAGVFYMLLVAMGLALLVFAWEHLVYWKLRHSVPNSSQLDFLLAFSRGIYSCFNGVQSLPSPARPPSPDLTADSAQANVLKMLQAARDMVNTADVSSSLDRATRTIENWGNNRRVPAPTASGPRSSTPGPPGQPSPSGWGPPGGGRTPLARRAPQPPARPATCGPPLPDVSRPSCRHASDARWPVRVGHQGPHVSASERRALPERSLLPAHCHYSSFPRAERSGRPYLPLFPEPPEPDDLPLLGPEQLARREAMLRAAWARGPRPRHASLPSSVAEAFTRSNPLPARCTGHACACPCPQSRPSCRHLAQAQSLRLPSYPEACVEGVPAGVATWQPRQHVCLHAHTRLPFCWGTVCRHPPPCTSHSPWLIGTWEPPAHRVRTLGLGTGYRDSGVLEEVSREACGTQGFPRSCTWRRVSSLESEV
T3 sequence (Q00961 20-1237, other chains not shown): as above

With `O=C(CC(F)(F)C(=O)O)N1N=C(c2c(-c3cccc(F)c3)c3ccccc3[nH]c2=O)CC1c1ccc(Cl)cc1` (stereo not shown) [4-(5-(4-chlorophenyl)-3-(4-(3-fluorophenyl)-2-oxo-1,2-dihydroquinolin-3-yl)-4,5-dihydro-1H-pyrazol-1-yl)-2,2-difluoro-4-oxobutanoic acid] as the compound, how does the pIC50 [1] read?
Its pIC50 is 6.22.

What about the pIC50 [2] of the same compound?
The pIC50 was 6.30.

With `O=C(CC(F)(F)CO)N1N=C(c2c(-c3ccc(Cl)cc3)c3ccccc3[nH]c2=O)C[C@@H]1c1ccc(Cl)cc1` [(R)-4-(4-chlorophenyl)-3-(5-(4-chlorophenyl)-1-(3,3-difluoro-4-hydroxybutanoyl)-4,5-dihydro-1H-pyrazol-3-yl)quinolin-2(1H)-one] as the compound, how does the pIC50 [1] read?
Its pIC50 is 5.07.

What about the pIC50 [2] of the same compound?
Its pIC50 is 5.44.

What does the source list for `O=C(O)CCCN1N=C(c2c(-c3ccc(Cl)cc3)c3ccccc3[nH]c2=O)CC1c1ccc(Cl)cc1` (stereo not shown) [Compound 997-63, 4-(5-(4-Chlorophenyl)-3-(4-(4-chlorophenyl)-2-oxo-1,2-dihydroquinolin-3-yl)-4,5-dihydro-1H-pyrazol-1-yl)butanoic acid]?
pIC50 [3]: 5.52; pIC50 [4, 10]: 5.77

For `COC(=O)/C=C/C(=O)N1N=C(c2c(-c3ccc(Br)cc3)c3ccccc3[nH]c2=O)CC1c1ccc(Cl)cc1` (stereo not shown) [Compound 997-31, (E)-Methyl 4-(3-(4-(4-bromophenyl)-2-oxo-1,2-dihydroquinolin-3-yl)-5-(4-chlorophenyl)-4,5-dihydro-1H-pyrazol-1-yl)-4-oxobut-2-enoate], which “activity at NMDA receptors, in words” value [5] is on record?
The value was “inactive”.

Which results are given for `O=C(CC(F)(F)CO)N1N=C(c2c(-c3ccc(Cl)cc3)c3ccccc3[nH]c2=O)CC1c1ccc(Cl)cc1` (stereo not shown) [4-(4-chlorophenyl)-3-(5-(4-chlorophenyl)-1-(3,3-difluoro-4-hydroxybutanoyl)-4,5-dihydro-1H-pyrazol-3-yl)quinolin-2(1H)-one]?
pIC50 [1]: 5.80; pIC50 [2]: 6.10

Which “potency at GluN2D-containing receptors, in words” value (from here on “potency”) [4] does the source give for `O=C(O)CCC(=O)N1N=C(c2c(-c3cc(Cl)cc(Cl)c3)c3ccccc3[nH]c2=O)CC1c1ccc(Cl)cc1` (stereo not shown) [Compound 997-37] here?
The value was “submicromolar”.

For `O=C(O)CCC(=O)N1N=C(c2c(-c3ccc(Cl)c(Cl)c3)c3ccccc3[nH]c2=O)CC1c1ccc(Cl)cc1` (stereo not shown) [Compound 997-41, 4-(5-(4-Chlorophenyl)-3-(4-(3,4-dichlorophenyl)-2-oxo-1,2-dihydroquinolin-3-yl)-4,5-dihydro-1H-pyrazol-1-yl)-4-oxobutanoic acid], which “potency” value [4] is on record?
The value was “submicromolar”.

With `COC(=O)c1ccc(C2CC(c3c(-c4ccccc4)c4cc(Cl)ccc4[nH]c3=O)=NN2C(=O)CCC(=O)O)cc1` (stereo not shown) [Compound 997-6, 4-(3-(6-Chloro-2-oxo-4-phenyl-1,2-dihydroquinolin-3-yl)-5-(4-(methoxycarbonyl)phenyl)-4,5-dihydro-1H-pyrazol-1-yl)-4-oxobutanoic acid] as the compound, how does the pIC50 ([4]; subunit inferred, GluN2D by context of b229, read-out: IC50 (potency, FIG. 10)) read?
The pIC50 was 4.49.

For `O=C(CCCF)N1N=C(c2c(-c3ccc(Cl)cc3)c3ccccc3[nH]c2=O)CC1c1ccc(Cl)cc1` (stereo not shown) [Compound 997-64, 4-(4-Chlorophenyl)-3-(5-(4-chlorophenyl)-1-(4-fluorobutanoyl)-4,5-dihydro-1H-pyrazol-3-yl)quinolin-2(1H)-one], which “Papp A-B” value ([6]; MDR1-MDCK, 5 μM, 120 minutes) is on record?
The value was 3.88 ×10⁻⁶ cm/s.

And the “Papp B-A” value ([6]; MDR1-MDCK, 5 μM, 120 minutes)?
Its value is 9.52 ×10⁻⁶ cm/s.

And the BBB penetration classification [6]?
The BBB penetration classification was “highly brain penetrable”.

With `O=C(CC(F)(F)CO)N1N=C(c2c(-c3ccc(Cl)cc3)c3ccccc3[nH]c2=O)C[C@H]1c1ccc(Cl)cc1` [(S)-4-(4-chlorophenyl)-3-(5-(4-chlorophenyl)-1-(3,3-difluoro-4-hydroxybutanoyl)-4,5-dihydro-1H-pyrazol-3-yl)quinolin-2(1H)-one] as the compound, how does the pIC50 [1] read?
The pIC50 was 5.85.

And the pIC50 [2]?
Its pIC50 is 6.22.

Which plasma stability [7] does the source give for `O=C(CCCO)N1N=C(c2c(-c3ccc(Cl)cc3)c3ccccc3[nH]c2=O)CC1c1ccc(Cl)cc1` (stereo not shown) [Compound 997-57, 4-(4-Chlorophenyl)-3-(5-(4-chlorophenyl)-1-(4-hydroxybutanoyl)-4,5-dihydro-1H-pyrazol-3-yl)quinolin-2(1H)-one] here?
Its plasma stability is “minimal degradation”.

And the plasma stability [8]?
The plasma stability was “minimal degradation”.

And the “Papp A-B” value ([6]; MDR1-MDCK, 5 μM, 120 minutes)?
Its value is 2.46 ×10⁻⁶ cm/s.

And the BBB penetration classification [6]?
Its BBB penetration classification is “low BBB potential”.

What about the plasma stability [9] of the same compound?
The plasma stability was “minimal degradation”.

And the “selectivity over GluN2A-containing receptors” value ([5]; activity at GluN2C- and GluN2D-containing receptors versus GluN2A)?
Its value is 90 fold.

For `O=C(O)CCC(=O)N1N=C(c2c(-c3ccccc3)c3cc(Cl)ccc3[nH]c2=O)CC1c1ccc(C(=O)O)cc1` (stereo not shown) [Compound 997-5, 4-(1-(3-Carboxypropanoyl)-3-(6-chloro-2-oxo-4-phenyl-1,2-dihydroquinolin-3-yl)-4,5-dihydro-1H-pyrazol-5-yl)benzoic acid], which “activity at NMDA receptors, in words” value [5] is on record?
The value was “no activity”.

What does the source list for `O=C(O)CCC(=O)N1N=C(c2c(-c3ccc(Br)cc3)c3ccccc3[nH]c2=O)CC1c1ccc(Br)cc1` (stereo not shown) [Compound 997-7, 4-(5-(4-Bromophenyl)-3-(4-(4-bromophenyl)-2-oxo-1,2-dihydroquinolin-3-yl)-4,5-dihydro-1H-pyrazol-1-yl)-4-oxobutanoic acid]?
pIC50 [3]: 6.15; selectivity for GluN2D-containing over GluN2A-containing receptors [4]: 33 fold; selectivity for GluN2D-containing over GluN2B-containing receptors [4]: 67 fold; pIC50 [4, 10]: 6.41

With `COC(=O)CCC(=O)N1N=C(c2c(-c3ccccc3)c3cc(Cl)ccc3[nH]c2=O)CC1c1ccc(Br)cc1` (stereo not shown) [Compound 997-11, Methyl 4-(5-(4-bromophenyl)-3-(6-chloro-2-oxo-4-phenyl-1,2-dihydroquinolin-3-yl)-4,5-dihydro-1H-pyrazol-1-yl)-4-oxobutanoate] as the compound, how does the “activity at NMDA receptors, in words” value [5] read?
Its value is “inactive”.

What does the source list for `O=C(O)CCC(=O)N1N=C(c2c(-c3ccncc3)c3ccccc3[nH]c2=O)CC1c1ccc(Cl)cc1` (stereo not shown) [4-(5-(4-chlorophenyl)-3-(2-oxo-4-(pyridin-4-yl)-1,2-dihydroquinolin-3-yl)-4,5-dihydro-1H-pyrazol-1-yl)-4-oxobutanoic acid]?
pIC50 [1]: 4.82; pIC50 [2]: 5.09

Which “potency” value [4] does the source give for `O=C(O)CCC(=O)N1N=C(c2c(-c3ccc(F)c(Cl)c3)c3ccccc3[nH]c2=O)CC1c1ccc(Cl)cc1` (stereo not shown) [Compound 997-34, 4-(3-(4-(3-Chloro-4-fluorophenyl)-2-oxo-1,2-dihydroquinolin-3-yl)-5-(4-chlorophenyl)-4,5-dihydro-1H-pyrazol-1-yl)-4-oxobutanoic acid] here?
The value was “submicromolar”.

With `O=C(O)CCC(=O)N1N=C(c2c(-c3ccccc3)c3cc(Cl)ccc3[nH]c2=O)CC1c1ccc(C(F)(F)F)cc1` (stereo not shown) [Compound 997-8, 4-(3-(6-Chloro-2-oxo-4-phenyl-1,2-dihydroquinolin-3-yl)-5-(4-(trifluoromethyl)phenyl)-4,5-dihydro-1H-pyrazol-1-yl)-4-oxobutanoic acid] as the compound, how does the pIC50 [4, 10] read?
The pIC50 was 5.39.

With `O=C(O)CCC(=O)N1N=C(c2c(-c3cc(F)cc(F)c3)c3ccccc3[nH]c2=O)CC1c1ccc(Cl)cc1` (stereo not shown) [Compound 997-35, 4-(5-(4-Chlorophenyl)-3-(4-(3,5-difluorophenyl)-2-oxo-1,2-dihydroquinolin-3-yl)-4,5-dihydro-1H-pyrazol-1-yl)-4-oxobutanoic acid] as the compound, how does the “potency” value [4] read?
The value was “submicromolar”.

For `O=C(O)CCC(=O)N1N=C(c2c(-c3ccc(F)c(F)c3)c3ccccc3[nH]c2=O)CC1c1ccc(Cl)cc1` (stereo not shown) [Compound 997-42, 4-(5-(4-Chlorophenyl)-3-(4-(3,4-difluorophenyl)-2-oxo-1,2-dihydroquinolin-3-yl)-4,5-dihydro-1H-pyrazol-1-yl)-4-oxobutanoic acid], which “potency” value [4] is on record?
Its value is “submicromolar”.

Which results are given for `O=C(O)CC(F)(F)C(=O)N1N=C(c2c(-c3ccc(Cl)cc3)c3ccccc3[nH]c2=O)CC1c1ccc(Cl)cc1` (stereo not shown) [4-(5-(4-chlorophenyl)-3-(4-(4-chlorophenyl)-2-oxo-1,2-dihydroquinolin-3-yl)-4,5-dihydro-1H-pyrazol-1-yl)-3,3-difluoro-4-oxobutanoic acid]?
pIC50 [1]: 6.41; pIC50 [2]: 7.30
